Experiments:
[1] = target: Transcriptional enhancer factor TEF-1 (Homo sapiens, UniProt P28347)
Description: Binding affinity to human recombinant N-terminal His-tagged TEAD1 (residues 209 to 424) expressed in Escherichia coli BL21 (DE3) assessed as dissociation constant

[2] = target: Replicase polyprotein 1ab (Severe acute respiratory syndrome coronavirus 2, UniProt P0DTD1)
Description: Binding affinity to SARS-CoV-2 Main protease assessed as dissociation constant by SPR analysis

Interleukin-1 beta = Interleukin-1 beta (Homo sapiens, UniProt P01584); test: Binding affinity to Interleukin-1beta (unknown origin) assessed as dissociation constant
Pantothenate synthetase = target: T1, Pantothenate synthetase (Mycobacterium tuberculosis, UniProt P9WIL5); test: Inhibition of Mycobacterium tuberculosis H37Ra pantothenate synthetase
T1 sequence (P9WIL5 whole entry): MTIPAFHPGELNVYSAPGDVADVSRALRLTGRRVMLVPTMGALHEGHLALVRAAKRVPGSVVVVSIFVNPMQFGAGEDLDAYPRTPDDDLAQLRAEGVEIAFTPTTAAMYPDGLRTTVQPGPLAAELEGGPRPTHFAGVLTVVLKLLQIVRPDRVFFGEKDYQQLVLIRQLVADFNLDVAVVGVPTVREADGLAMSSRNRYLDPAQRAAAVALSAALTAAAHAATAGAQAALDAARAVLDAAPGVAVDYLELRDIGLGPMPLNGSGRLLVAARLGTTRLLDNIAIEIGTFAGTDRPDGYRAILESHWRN

[3] = target: Transcriptional enhancer factor TEF-4 (Homo sapiens, UniProt Q15562)
Transcriptional enhancer factor TEF-4, sequence (Q15562 whole entry): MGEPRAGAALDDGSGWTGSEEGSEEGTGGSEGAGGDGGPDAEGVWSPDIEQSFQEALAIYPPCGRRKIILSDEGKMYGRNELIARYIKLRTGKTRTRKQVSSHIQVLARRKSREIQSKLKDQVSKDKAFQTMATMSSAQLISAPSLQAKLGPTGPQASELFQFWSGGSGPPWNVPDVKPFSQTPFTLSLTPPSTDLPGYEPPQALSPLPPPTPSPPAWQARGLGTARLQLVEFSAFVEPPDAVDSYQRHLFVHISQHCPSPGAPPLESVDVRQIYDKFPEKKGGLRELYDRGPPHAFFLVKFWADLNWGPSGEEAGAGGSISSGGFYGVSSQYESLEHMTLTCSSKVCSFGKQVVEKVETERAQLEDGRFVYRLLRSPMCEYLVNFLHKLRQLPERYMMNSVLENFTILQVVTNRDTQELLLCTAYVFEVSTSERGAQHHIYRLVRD
Description: Binding affinity to human recombinant N-terminal His-tagged TEAD2 (residues 209 to 424) expressed in Escherichia coli BL21 (DE3) assessed as dissociation constant

Transcriptional enhancer factor TEF-1, sequence (P28347 whole entry): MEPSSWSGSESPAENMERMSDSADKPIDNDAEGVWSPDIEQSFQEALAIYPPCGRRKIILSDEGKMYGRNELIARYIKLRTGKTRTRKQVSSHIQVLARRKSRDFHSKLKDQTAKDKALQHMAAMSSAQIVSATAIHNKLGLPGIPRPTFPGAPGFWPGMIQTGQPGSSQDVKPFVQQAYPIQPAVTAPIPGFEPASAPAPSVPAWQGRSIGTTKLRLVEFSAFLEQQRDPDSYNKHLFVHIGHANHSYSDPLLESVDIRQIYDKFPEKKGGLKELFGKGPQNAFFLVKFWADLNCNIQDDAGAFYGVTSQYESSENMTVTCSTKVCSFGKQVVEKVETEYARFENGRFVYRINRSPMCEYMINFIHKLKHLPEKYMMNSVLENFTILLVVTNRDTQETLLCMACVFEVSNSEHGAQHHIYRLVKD
Interleukin-1 beta, sequence (P01584 117-269 limits assumed): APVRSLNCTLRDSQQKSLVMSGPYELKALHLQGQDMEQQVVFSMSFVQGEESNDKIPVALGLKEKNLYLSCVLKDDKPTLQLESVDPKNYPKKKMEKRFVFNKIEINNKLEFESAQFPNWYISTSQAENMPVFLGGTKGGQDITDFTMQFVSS

Compound `C=C(F)C(=O)N1C[C@@H](n2cc(-c3cccnc3)nn2)[C@H](OCc2ccc(C(F)(F)F)cc2)C1` has a Kd [1] of 170 nM.
`O=C1N[C@@H](Cc2ccccc2)C(=O)N1c1cncc(F)c1` gave a Kd [2] of 23000 nM.
`O=C(O)c1cc(NCc2ccccc2OCCOCCOCCOc2ccccc2CNc2cc(C(=O)O)cc(-c3ccnc4ccccc34)c2)cc(-c2ccnc3ccccc23)c1` showed a Kd (Interleukin-1 beta) of 40 nM.
For `N#Cc1c(N)ncnc1-c1cnn(Cc2ccc(F)c(F)c2)c1`, the IC50 (Pantothenate synthetase) was 150 nM.
Work on `N#Cc1cncnc1N` yielded an IC50 (Pantothenate synthetase) of 340 nM.
`O=C(O)c1ccccc1Nc1cccc(C(F)(F)F)c1` [FLUFENAMIC ACID] gave a Kd [3] of 73000 nM.
